System: Hartley guinea pigs
Conditions: guinea pig, in vivo

SMILES	Duration, time for full recovery
CCCCN1CCCCC1C(=O)Nc1c(C)cccc1C (centres unmarked) [bupivacaine]	~90 min
CCN(CC)CC(=O)Nc1c(C)cccc1C [lidocaine]	≈ 30 minutes

Reference: patent US20040259794A1 (priority 1999, published 2004)
